Assay results from patent US9688683B2, “Substituted condensed pyrimidine compounds” (GRÜNENTHAL GMBH, priority 2013, dated 2017).

Target: human PDE4B1 (Homo sapiens (Human), UniProt Q07343)
Test: cAMP HTRF assay to determine the activity of hPDE4B1
Assay type: biochemical
Conditions: inhibition of PDE4B at a test substrate concentration of 3 μM
Protocol: A: Determination of the PDE4B IC50 Values with a cAMP HRTF® Assay to Determine the Activity of hPDE4B1
The inhibiting effect of the compounds on the enzyme activity of human PDE4B1 is measured by the quantification of 5′-AMP, which is formed from 3′,5′-adenosine monophosphate (cAMP). Human recombinant enzyme, expressed in Sf9 cells, and the HTRF (homogeneous time-resolved fluorescence) detection method are used in the assay.
The test compound or water (control) is mixed with the human recombinant PDE4B1 enzyme (4.8 U) in a buffer consisting of 44.4 mM tris-HCl, 5.28 mM MgCl2, 2.64 mM DTT and 0.044% Tween 20 (pH 7.8). After adding the cAMP enzyme substrate (final concentration 40 nM) the mixture is incubated for 30 minutes at room temperature. Then a fluorescence acceptor (Dye2 marked with cAMP), a fluorescence donor (anti-cAMP antibody marked with a europium cryptate) and the non-specific phosphodiesterase inhibitor IBMX (3-isobutyl-1-methylxanthine; final concentration 1 mM) are added. After 60 minutes the fluorescence transfer, which correlates with the amount of remaining cAMP, is measured with a microplate reader (Rubystar, BMG) at λex=337 nm, λem=620 nm and λem=665 nm. The enzyme activity is calculated from the quotient formed from the measured signal at 665 nm and that at 620 nm. The result is expressed as the percentage inhibition of enzyme activity of the control (without PDE4 inhibitor) (literature: N. Saldou et al., Comparison of recombinant human PDE4 isoforms: interaction with substrate and inhibitors, Cell. Signal. Vol. 10, No. 6, 427-440, 1998). The enzyme is omitted for measurement of the basal control.

Sequence of human PDE4B1 (Q07343 whole entry): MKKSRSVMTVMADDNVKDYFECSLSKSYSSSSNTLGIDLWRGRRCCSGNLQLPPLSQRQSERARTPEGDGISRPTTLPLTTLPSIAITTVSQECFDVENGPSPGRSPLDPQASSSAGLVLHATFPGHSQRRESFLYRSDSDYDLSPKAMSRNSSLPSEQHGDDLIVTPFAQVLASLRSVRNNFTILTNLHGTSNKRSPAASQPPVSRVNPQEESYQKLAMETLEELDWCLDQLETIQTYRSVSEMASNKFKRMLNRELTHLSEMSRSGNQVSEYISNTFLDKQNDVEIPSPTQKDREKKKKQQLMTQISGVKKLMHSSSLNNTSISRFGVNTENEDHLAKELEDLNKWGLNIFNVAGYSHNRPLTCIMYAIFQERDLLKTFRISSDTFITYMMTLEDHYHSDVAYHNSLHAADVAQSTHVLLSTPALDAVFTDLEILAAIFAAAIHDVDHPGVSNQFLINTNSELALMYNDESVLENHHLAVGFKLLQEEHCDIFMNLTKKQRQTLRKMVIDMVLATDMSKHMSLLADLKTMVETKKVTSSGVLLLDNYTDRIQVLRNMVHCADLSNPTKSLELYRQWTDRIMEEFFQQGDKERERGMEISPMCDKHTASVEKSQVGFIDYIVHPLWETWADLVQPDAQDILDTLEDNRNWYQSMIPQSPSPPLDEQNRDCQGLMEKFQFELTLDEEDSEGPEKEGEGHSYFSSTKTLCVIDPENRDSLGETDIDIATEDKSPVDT

Which inhibition at 3 µM does the source give for `CCc1nc(-c2ccc3occc3c2)nc2c1CCN2c1ccc(C(=O)O)cc1` [Compound 84, 4-(2-(Benzofuran-5-yl)-4-ethyl-5H-pyrrolo[2,3-d]pyrimidin-7(6H)-yl)benzoic acid] here?
Its inhibition at 3 µM is 45%.

How did the inhibition at 3 µM turn out when `CCc1nc(-c2ccc(OC)c(F)c2)nc2c1ccn2-c1cccc(OCC(=O)N(C)C)c1` [Compound 85, 2-(3-(4-Ethyl-2-(3-fluoro-4-methoxyphenyl)-7H-pyrrolo[2,3-d]pyrimidin-7-yl)phenoxy)-N,N-dimethylacetamide] was run?
The inhibition at 3 µM was 43%.

How did the inhibition at 3 µM turn out when `CCc1nc(-c2ccc(F)c(OC)c2)nc2c1CCN2c1ccc(CC(=O)O)cc1` [Compound 86, 2-(4-(4-Ethyl-2-(4-fluoro-3-methoxyphenyl)-5H-pyrrolo[2,3-d]pyrimidin-7(6H)-yl)phenyl)acetic acid] was run?
Its inhibition at 3 µM is 47%.

`CCc1nc(-c2ccc3c(c2)OCO3)nc2c1ccn2-c1cccc(OCC(=O)N(C)C)c1` [Compound 87, 2-(3-(2-(Benzo[d][1,3]dioxol-5-yl)-4-ethyl-7H-pyrrolo[2,3-d]pyrimidin-7-yl)phenoxy)-N,N-dimethylacetamide] was tested. Which inhibition at 3 µM did it give?
Its inhibition at 3 µM is 52%.

Which inhibition at 3 µM does the source give for `CCc1nc(-c2ccc3ncsc3c2)nc2c1ccn2-c1cccc(OCC(=O)N(C)C)c1` [Compound 88, 2-(3-(2-(Benzo[d]thiazol-6-yl)-4-ethyl-7H-pyrrolo[2,3-d]pyrimidin-7-yl)phenoxy)-N,N-dimethylacetamide] here?
Its inhibition at 3 µM is 51%.

For `CCc1nc(-c2ccc3occc3c2)nc2c1CCN2c1ccc(CC(=O)O)cc1` [Compound 89, 2-(4-(2-(Benzofuran-5-yl)-4-ethyl-5H-pyrrolo[2,3-d]pyrimidin-7(6H)-yl)phenyl)acetic acid], which inhibition at 3 µM is on record?
Its inhibition at 3 µM is 63%.

How did the inhibition at 3 µM turn out when `CCc1nc(-c2ccc(OC(F)F)cc2)nc2c1CCN2c1ccc(CC(=O)O)cc1` [Compound 90, 2-(4-(2-(4-(Difluoromethoxy)phenyl)-4-ethyl-5H-pyrrolo[2,3-d]pyrimidin-7(6H)-yl)phenyl)acetic acid] was run?
Its inhibition at 3 µM is 58%.

For `CCc1nc(-c2ccc(S(C)(=O)=O)cc2)nc2c1ccn2-c1cccc(OCC(=O)N(C)C)c1` [Compound 91, 2-(3-(4-Ethyl-2-(4-(methylsulfonyl)phenyl)-7H-pyrrolo[2,3-d]pyrimidin-7-yl)phenoxy)-N,N-dimethylacetamide], which inhibition at 3 µM is on record?
Its inhibition at 3 µM is 52%.

With `CCc1nc(-c2ccc(OC)c(Cl)c2)nc2c1ccn2-c1cccc(OCC(=O)N(C)C)c1` [Compound 92, 2-(3-(2-(3-Chloro-4-methoxyphenyl)-4-ethyl-7H-pyrrolo[2,3-d]pyrimidin-7-yl)phenoxy)-N,N-dimethylacetamide] as the compound, how does the inhibition at 3 µM read?
Its inhibition at 3 µM is 67%.

With `CCc1nc(-c2ccc3ncsc3c2)nc2c1CCN2c1ccc(CC(=O)O)cc1` [Compound 93, 2-(4-(2-(Benzo[d]thiazol-6-yl)-4-ethyl-5H-pyrrolo[2,3-d]pyrimidin-7(6H)-yl)phenyl)acetic acid] as the compound, how does the inhibition at 3 µM read?
Its inhibition at 3 µM is 57%.

Which inhibition at 3 µM does the source give for `CCc1nc(-c2ccc(OC)cc2)nc2c1ccn2-c1cccc(OCC(=O)N(C)C)c1` [Compound 94, 2-(3-(4-Ethyl-2-(4-methoxyphenyl)-7H-pyrrolo[2,3-d]pyrimidin-7-yl)phenoxy)-N,N-dimethylacetamide] here?
Its inhibition at 3 µM is 54%.

Which inhibition at 3 µM does the source give for `CCOc1ccc(-c2nc(CC)c3ccn(-c4cccc(OCC(=O)N(C)C)c4)c3n2)cc1` [Compound 95, 2-(3-(2-(4-Ethoxyphenyl)-4-ethyl-7H-pyrrolo[2,3-d]pyrimidin-7-yl)phenoxy)-N,N-dimethylacetamide] here?
The inhibition at 3 µM was 41%.

For `CCOc1ccc(-c2nc(CC)c3c(n2)N(c2ccc(CC(=O)O)cc2)CC3)cc1` [Compound 96, 2-(4-(2-(4-Ethoxyphenyl)-4-ethyl-5H-pyrrolo[2,3-d]pyrimidin-7(6H)-yl)phenyl)acetic acid], which inhibition at 3 µM is on record?
Its inhibition at 3 µM is 39%.

Which inhibition at 3 µM does the source give for `CCc1nc(-c2cncnc2)nc2c1ccn2-c1cccc(OCC(=O)N(C)C)c1` [Compound 97, 2-(3-(4-Ethyl-2-(pyrimidin-5-yl)-7H-pyrrolo[2,3-d]pyrimidin-7-yl)phenoxy)-N,N-dimethylacetamide] here?
The inhibition at 3 µM was 67%.

How did the inhibition at 3 µM turn out when `CCOc1cccc(-c2nc(CC)c3c(n2)N(c2ccc(C(=O)O)cc2)CC3)c1` [Compound 98, 4-(2-(3-Ethoxyphenyl)-4-ethyl-5H-pyrrolo[2,3-d]pyrimidin-7(6H)-yl)benzoic acid] was run?
The inhibition at 3 µM was 43%.

`CCc1nc(-c2ccc(F)c(Cl)c2)nc2c1CCN2c1ccc(CC(=O)O)cc1` [Compound 99, 2-(4-(2-(3-Chloro-4-fluorophenyl)-4-ethyl-5H-pyrrolo[2,3-d]pyrimidin-7(6H)-yl)phenyl)acetic acid] was tested. Which inhibition at 3 µM did it give?
Its inhibition at 3 µM is 54%.
